# Test system: Hs578T multi-cell spheroids, viability
# Assay: Anticancer human tumor Hs578T cell line growth inhibition [IpAb];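 note: drug exposure lasted 7 days before readout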
# Conditions: for IC50: curve of first compound; for viability, T/C: stronger effect = lower value
# Outline: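 Spheroids of 60% malignant cells, 25% HUVEC and 15% MSC were exposed to targeted agents combined with ipatasertib or abemaciclib. Doses started at or near clinical Cmax (10 microM when unknown) and fell in half-log steps.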
# [1] = second compound 0.1 µM, first compound 0.0316 µM
# [2] = second compound 0.1 µM, first compound 0.1 µM
# [3] = second compound 0.1 µM, first compound 0.316 µM
# [4] = second compound 0.1 µM, first compound 1 µM
# [5] = second compound 0.1 µM, first compound 3.16 µM
# [6] = second compound 0.1 µM, first compound 10 µM
# [7] = second compound 0.316 µM, first compound 0.0316 µM
# [8] = second compound 0.316 µM, first compound 0.1 µM
# [9] = second compound 0.316 µM, first compound 0.316 µM
# [10] = second compound 0.316 µM, first compound 1 µM
# [11] = second compound 0.316 µM, first compound 3.16 µM
# [12] = second compound 0.316 µM, first compound 10 µM
# [13] = second compound 1 µM, first compound 0.0316 µM
# [14] = second compound 1 µM, first compound 0.1 µM
# [15] = second compound 1 µM, first compound 0.316 µM
# [16] = second compound 1 µM, first compound 1 µM
# [17] = second compound 1 µM, first compound 3.16 µM
# [18] = second compound 1 µM, first compound 10 µM
# [19] = second compound 3.16 µM, first compound 0.0316 µM
# [20] = second compound 3.16 µM, first compound 0.1 µM
# [21] = second compound 3.16 µM, first compound 0.316 µM
# [22] = second compound 3.16 µM, first compound 1 µM
# [23] = second compound 3.16 µM, first compound 3.16 µM
# [24] = second compound 3.16 µM, first compound 10 µM
# [25] = second compound 10 µM, first compound 0.0316 µM
# [26] = second compound 10 µM, first compound 0.1 µM
# [27] = second compound 10 µM, first compound 0.316 µM
# [28] = second compound 10 µM, first compound 1 µM
# [29] = second compound 10 µM, first compound 3.16 µM
# [30] = second compound 10 µM, first compound 10 µM
smiles,measurement,setting,value
C=CC(=O)N1CCN(c2nc(=O)n(-c3c(C)ccnc3C(C)C)c3nc(-c4c(O)cccc4F)c(F)cc23)C(C)C1 (stereo not given) + CC(C)NCC(C(=O)N1CCN(c2ncnc3c2C(C)CC3O)CC1)c1ccc(Cl)cc1,IC50,second compound 0.1 µM,> 10000 nM
same,IC50,second compound 0.316 µM,> 10000 nM
same,IC50,second compound 1 µM,> 10000 nM
same,IC50,second compound 3.16 µM,3950 nM
same,IC50,second compound 10 µM,< 31.6 nM
same,"viability, T/C",[1],94.2%
same,"viability, T/C",[2],103%
same,"viability, T/C",[3],102%
same,"viability, T/C",[4],112%
same,"viability, T/C",[5],94.4%
same,"viability, T/C",[6],72%
same,"viability, T/C",[7],83.7%
same,"viability, T/C",[8],90.6%
same,"viability, T/C",[9],90.1%
same,"viability, T/C",[10],89.5%
same,"viability, T/C",[11],84%
same,"viability, T/C",[12],65.5%
same,"viability, T/C",[13],70.8%
same,"viability, T/C",[14],70.9%
same,"viability, T/C",[15],69.3%
same,"viability, T/C",[16],75.1%
same,"viability, T/C",[17],66.2%
same,"viability, T/C",[18],55.1%
same,"viability, T/C",[19],56.7%
same,"viability, T/C",[20],59.6%
same,"viability, T/C",[21],55.1%
same,"viability, T/C",[22],54.5%
same,"viability, T/C",[23],52.8%
same,"viability, T/C",[24],41.9%
same,"viability, T/C",[25],45.1%
same,"viability, T/C",[26],50.4%
same,"viability, T/C",[27],46.9%
same,"viability, T/C",[28],49.1%
same,"viability, T/C",[29],46.5%
same,"viability, T/C",[30],20.4%
CC(C)(C)c1cnc(CSc2cnc(NC(=O)C3CCNCC3)s2)o1 + CC(C)NCC(C(=O)N1CCN(c2ncnc3c2C(C)CC3O)CC1)c1ccc(Cl)cc1,IC50,second compound 0.1 µM,180 nM
same,IC50,second compound 0.316 µM,173 nM
same,IC50,second compound 1 µM,156 nM
same,IC50,second compound 3.16 µM,108 nM
same,IC50,second compound 10 µM,33.3 nM
same,"viability, T/C","second compound 0.1 µM, first compound 0.00949 µM",104%
same,"viability, T/C","second compound 0.1 µM, first compound 0.03 µM",114%
same,"viability, T/C","second compound 0.1 µM, first compound 0.0949 µM",109%
same,"viability, T/C","second compound 0.1 µM, first compound 0.3 µM",2.64%
same,"viability, T/C","second compound 0.1 µM, first compound 0.949 µM",2.52%
same,"viability, T/C","second compound 0.1 µM, first compound 3 µM",3.3%
same,"viability, T/C","second compound 0.316 µM, first compound 0.00949 µM",93.5%
same,"viability, T/C","second compound 0.316 µM, first compound 0.03 µM",104%
same,"viability, T/C","second compound 0.316 µM, first compound 0.0949 µM",107%
same,"viability, T/C","second compound 0.316 µM, first compound 0.3 µM",2.26%
same,"viability, T/C","second compound 0.316 µM, first compound 0.949 µM",2.29%
same,"viability, T/C","second compound 0.316 µM, first compound 3 µM",2.23%
same,"viability, T/C","second compound 1 µM, first compound 0.00949 µM",80.7%
same,"viability, T/C","second compound 1 µM, first compound 0.03 µM",88.7%
same,"viability, T/C","second compound 1 µM, first compound 0.0949 µM",89.5%
same,"viability, T/C","second compound 1 µM, first compound 0.3 µM",2.31%
same,"viability, T/C","second compound 1 µM, first compound 0.949 µM",2.45%
same,"viability, T/C","second compound 1 µM, first compound 3 µM",2.32%
same,"viability, T/C","second compound 3.16 µM, first compound 0.00949 µM",60.5%
same,"viability, T/C","second compound 3.16 µM, first compound 0.03 µM",69.6%
same,"viability, T/C","second compound 3.16 µM, first compound 0.0949 µM",56.1%
same,"viability, T/C","second compound 3.16 µM, first compound 0.3 µM",2.25%
same,"viability, T/C","second compound 3.16 µM, first compound 0.949 µM",3.36%
same,"viability, T/C","second compound 3.16 µM, first compound 3 µM",3.32%
same,"viability, T/C","second compound 10 µM, first compound 0.00949 µM",49.3%
same,"viability, T/C","second compound 10 µM, first compound 0.03 µM",57.7%
same,"viability, T/C","second compound 10 µM, first compound 0.0949 µM",14.8%
same,"viability, T/C","second compound 10 µM, first compound 0.3 µM",1.74%
same,"viability, T/C","second compound 10 µM, first compound 0.949 µM",2.09%
same,"viability, T/C","second compound 10 µM, first compound 3 µM",2.94%
Cn1ncc(Cl)c1-c1cc(C(=O)NC(CN)Cc2cccc(F)c2)sc1Cl (stereo not given) + CC(C)NCC(C(=O)N1CCN(c2ncnc3c2C(C)CC3O)CC1)c1ccc(Cl)cc1,IC50,second compound 0.1 µM,1680 nM
same,IC50,second compound 0.316 µM,2070 nM
same,IC50,second compound 1 µM,1110 nM
same,IC50,second compound 3.16 µM,951 nM
same,IC50,second compound 10 µM,31.6 nM
same,"viability, T/C",[1],90.9%
same,"viability, T/C",[2],83.2%
same,"viability, T/C",[3],70%
same,"viability, T/C",[4],56.5%
same,"viability, T/C",[5],44.5%
same,"viability, T/C",[6],0.16%
same,"viability, T/C",[7],51.9%
same,"viability, T/C",[8],73.5%
same,"viability, T/C",[9],67.1%
same,"viability, T/C",[10],54.5%
same,"viability, T/C",[11],45.9%
same,"viability, T/C",[12],0.16%
same,"viability, T/C",[13],67.3%
same,"viability, T/C",[14],62.1%
same,"viability, T/C",[15],50.1%
same,"viability, T/C",[16],51.6%
same,"viability, T/C",[17],39.4%
same,"viability, T/C",[18],0.15%
same,"viability, T/C",[19],53.2%
same,"viability, T/C",[20],53.7%
same,"viability, T/C",[21],49%
same,"viability, T/C",[22],48.6%
same,"viability, T/C",[23],41.5%
same,"viability, T/C",[24],0.16%
same,"viability, T/C",[25],42.7%
same,"viability, T/C",[26],47.3%
same,"viability, T/C",[27],43.9%
same,"viability, T/C",[28],52.2%
same,"viability, T/C",[29],28.6%
same,"viability, T/C",[30],0.24%
Cn1nccc1Nc1nccc(-c2ccn(C(CO)c3ccc(Cl)c(F)c3)c(=O)c2)n1 (stereo not given) + CC(C)NCC(C(=O)N1CCN(c2ncnc3c2C(C)CC3O)CC1)c1ccc(Cl)cc1,IC50,second compound 0.1 µM,4560 nM
same,IC50,second compound 0.316 µM,2610 nM
same,IC50,second compound 1 µM,1520 nM
same,IC50,second compound 3.16 µM,626 nM
same,IC50,second compound 10 µM,138 nM
same,"viability, T/C",[1],106%
same,"viability, T/C",[2],109%
same,"viability, T/C",[3],111%
same,"viability, T/C",[4],76.8%
same,"viability, T/C",[5],59.4%
same,"viability, T/C",[6],37.9%
same,"viability, T/C",[7],91.5%
same,"viability, T/C",[8],90.5%
same,"viability, T/C",[9],94.3%
same,"viability, T/C",[10],60.9%
same,"viability, T/C",[11],50.9%
same,"viability, T/C",[12],23.6%
same,"viability, T/C",[13],65.8%
same,"viability, T/C",[14],73.5%
same,"viability, T/C",[15],77.7%
same,"viability, T/C",[16],54.3%
same,"viability, T/C",[17],36.2%
same,"viability, T/C",[18],14.1%
same,"viability, T/C",[19],62.2%
same,"viability, T/C",[20],61.6%
same,"viability, T/C",[21],61.7%
same,"viability, T/C",[22],42.4%
same,"viability, T/C",[23],16.3%
same,"viability, T/C",[24],2.55%
same,"viability, T/C",[25],48.1%
same,"viability, T/C",[26],55.6%
same,"viability, T/C",[27],45.6%
same,"viability, T/C",[28],31.1%
same,"viability, T/C",[29],3.87%
same,"viability, T/C",[30],0.64%
Cn1ncnc1[C@H]1c2n[nH]c(=O)c3cc(F)cc(c23)N[C@@H]1c1ccc(F)cc1 + CC(C)NCC(C(=O)N1CCN(c2ncnc3c2C(C)CC3O)CC1)c1ccc(Cl)cc1,IC50,second compound 0.1 µM,> 100 nM
same,IC50,second compound 0.316 µM,> 100 nM
same,IC50,second compound 1 µM,> 100 nM
same,IC50,second compound 3.16 µM,0.553 nM
same,IC50,second compound 10 µM,< 0.316 nM
same,"viability, T/C","second compound 0.1 µM, first compound 0.000316 µM",97.6%
same,"viability, T/C","second compound 0.1 µM, first compound 0.001 µM",95.3%
same,"viability, T/C","second compound 0.1 µM, first compound 0.00316 µM",87.9%
same,"viability, T/C","second compound 0.1 µM, first compound 0.01 µM",88.2%
same,"viability, T/C",[1],82.8%
same,"viability, T/C",[2],82.3%
same,"viability, T/C","second compound 0.316 µM, first compound 0.000316 µM",80.7%
same,"viability, T/C","second compound 0.316 µM, first compound 0.001 µM",79.5%
same,"viability, T/C","second compound 0.316 µM, first compound 0.00316 µM",79.9%
same,"viability, T/C","second compound 0.316 µM, first compound 0.01 µM",71.7%
same,"viability, T/C",[7],75.5%
same,"viability, T/C",[8],65.9%
same,"viability, T/C","second compound 1 µM, first compound 0.000316 µM",66.1%
same,"viability, T/C","second compound 1 µM, first compound 0.001 µM",61.3%
same,"viability, T/C","second compound 1 µM, first compound 0.00316 µM",62.6%
same,"viability, T/C","second compound 1 µM, first compound 0.01 µM",60%
same,"viability, T/C",[13],58.6%
same,"viability, T/C",[14],55.1%
same,"viability, T/C","second compound 3.16 µM, first compound 0.000316 µM",49.7%
same,"viability, T/C","second compound 3.16 µM, first compound 0.001 µM",49.4%
same,"viability, T/C","second compound 3.16 µM, first compound 0.00316 µM",50.5%
same,"viability, T/C","second compound 3.16 µM, first compound 0.01 µM",48.3%
same,"viability, T/C",[19],44.9%
same,"viability, T/C",[20],42.3%
same,"viability, T/C","second compound 10 µM, first compound 0.000316 µM",46.1%
same,"viability, T/C","second compound 10 µM, first compound 0.001 µM",42.9%
same,"viability, T/C","second compound 10 µM, first compound 0.00316 µM",44.9%
same,"viability, T/C","second compound 10 µM, first compound 0.01 µM",40.6%
same,"viability, T/C",[25],43.3%
same,"viability, T/C",[26],38.6%

# From PubChem BioAssay AID2060331 (Molecular Pharmacology Branch, DTP, NCI, 2025)
